The values below come from BindingDB's records for patent US12384798 (Nanjing Ruijie Pharma Co., 2025).

The structures appear in SMILES notation.

One assay concerns the target Acetyl-CoA carboxylase 1 (Homo sapiens, UniProt Q13085). As to the kind of experiment: In Vitro Assay of Acetyl-CoA Carboxylase (ACC) Inhibition. The method, then: (§1) An exemplary procedure for the in vitro ACC inhibition assay, which can be used to determine the inhibitory action of the compounds of the invention toward either ACC1 or ACC2, is as follows. The ADP-Glo™ kinase assay kit from Promega was used. The ADP-Glo™ kinase assay is a luminescent ADP detection assay to measure enzymatic activity by quantifying the amount of ADP produced during an enzyme reaction. The assay was performed in two steps; first, after the enzyme reaction, an equal volume of ADP-Glo™ reagent was added to terminate the reaction and deplete the remaining ATP. Then, the kinase detection reagent was added to simultaneously convert ADP to ATP and allow the newly synthesized ATP to be measured using a luciferase/luciferin reaction. Luminescence can be correlated to ADP concentrations by using an ATP-to-ADP conversion curve. The detailed procedure was as follows. 4.5 μL of a working solution was added to a 384-well plate. […] A final ACC reaction solution consisted of: 0.5 nM ACC, 10 μM ATP, 5 μM acetyl-CoA, and 15 mM NaHCO3; and the final concentrations of the compound were measured as follows: 1 μM, 0.333 μM, 0.111 μM, 0.037 μM, 0.0123 μM, 0.00411 μM, 0.00137 μM, 0.000457 μM, 0.000152 μM, and 0.000051 μM. […] The plates were incubated at room temperature for 40 minutes, then read on a Perkin Elmer EnVision 2104 plate reader for luminescence in relative light unit (RLU).

A further assay has as its target Acetyl-CoA carboxylase 2 (Homo sapiens, UniProt O00763). The description is as above. The method, then: as §1

Chain of Acetyl-CoA carboxylase 2 (O00763 whole entry): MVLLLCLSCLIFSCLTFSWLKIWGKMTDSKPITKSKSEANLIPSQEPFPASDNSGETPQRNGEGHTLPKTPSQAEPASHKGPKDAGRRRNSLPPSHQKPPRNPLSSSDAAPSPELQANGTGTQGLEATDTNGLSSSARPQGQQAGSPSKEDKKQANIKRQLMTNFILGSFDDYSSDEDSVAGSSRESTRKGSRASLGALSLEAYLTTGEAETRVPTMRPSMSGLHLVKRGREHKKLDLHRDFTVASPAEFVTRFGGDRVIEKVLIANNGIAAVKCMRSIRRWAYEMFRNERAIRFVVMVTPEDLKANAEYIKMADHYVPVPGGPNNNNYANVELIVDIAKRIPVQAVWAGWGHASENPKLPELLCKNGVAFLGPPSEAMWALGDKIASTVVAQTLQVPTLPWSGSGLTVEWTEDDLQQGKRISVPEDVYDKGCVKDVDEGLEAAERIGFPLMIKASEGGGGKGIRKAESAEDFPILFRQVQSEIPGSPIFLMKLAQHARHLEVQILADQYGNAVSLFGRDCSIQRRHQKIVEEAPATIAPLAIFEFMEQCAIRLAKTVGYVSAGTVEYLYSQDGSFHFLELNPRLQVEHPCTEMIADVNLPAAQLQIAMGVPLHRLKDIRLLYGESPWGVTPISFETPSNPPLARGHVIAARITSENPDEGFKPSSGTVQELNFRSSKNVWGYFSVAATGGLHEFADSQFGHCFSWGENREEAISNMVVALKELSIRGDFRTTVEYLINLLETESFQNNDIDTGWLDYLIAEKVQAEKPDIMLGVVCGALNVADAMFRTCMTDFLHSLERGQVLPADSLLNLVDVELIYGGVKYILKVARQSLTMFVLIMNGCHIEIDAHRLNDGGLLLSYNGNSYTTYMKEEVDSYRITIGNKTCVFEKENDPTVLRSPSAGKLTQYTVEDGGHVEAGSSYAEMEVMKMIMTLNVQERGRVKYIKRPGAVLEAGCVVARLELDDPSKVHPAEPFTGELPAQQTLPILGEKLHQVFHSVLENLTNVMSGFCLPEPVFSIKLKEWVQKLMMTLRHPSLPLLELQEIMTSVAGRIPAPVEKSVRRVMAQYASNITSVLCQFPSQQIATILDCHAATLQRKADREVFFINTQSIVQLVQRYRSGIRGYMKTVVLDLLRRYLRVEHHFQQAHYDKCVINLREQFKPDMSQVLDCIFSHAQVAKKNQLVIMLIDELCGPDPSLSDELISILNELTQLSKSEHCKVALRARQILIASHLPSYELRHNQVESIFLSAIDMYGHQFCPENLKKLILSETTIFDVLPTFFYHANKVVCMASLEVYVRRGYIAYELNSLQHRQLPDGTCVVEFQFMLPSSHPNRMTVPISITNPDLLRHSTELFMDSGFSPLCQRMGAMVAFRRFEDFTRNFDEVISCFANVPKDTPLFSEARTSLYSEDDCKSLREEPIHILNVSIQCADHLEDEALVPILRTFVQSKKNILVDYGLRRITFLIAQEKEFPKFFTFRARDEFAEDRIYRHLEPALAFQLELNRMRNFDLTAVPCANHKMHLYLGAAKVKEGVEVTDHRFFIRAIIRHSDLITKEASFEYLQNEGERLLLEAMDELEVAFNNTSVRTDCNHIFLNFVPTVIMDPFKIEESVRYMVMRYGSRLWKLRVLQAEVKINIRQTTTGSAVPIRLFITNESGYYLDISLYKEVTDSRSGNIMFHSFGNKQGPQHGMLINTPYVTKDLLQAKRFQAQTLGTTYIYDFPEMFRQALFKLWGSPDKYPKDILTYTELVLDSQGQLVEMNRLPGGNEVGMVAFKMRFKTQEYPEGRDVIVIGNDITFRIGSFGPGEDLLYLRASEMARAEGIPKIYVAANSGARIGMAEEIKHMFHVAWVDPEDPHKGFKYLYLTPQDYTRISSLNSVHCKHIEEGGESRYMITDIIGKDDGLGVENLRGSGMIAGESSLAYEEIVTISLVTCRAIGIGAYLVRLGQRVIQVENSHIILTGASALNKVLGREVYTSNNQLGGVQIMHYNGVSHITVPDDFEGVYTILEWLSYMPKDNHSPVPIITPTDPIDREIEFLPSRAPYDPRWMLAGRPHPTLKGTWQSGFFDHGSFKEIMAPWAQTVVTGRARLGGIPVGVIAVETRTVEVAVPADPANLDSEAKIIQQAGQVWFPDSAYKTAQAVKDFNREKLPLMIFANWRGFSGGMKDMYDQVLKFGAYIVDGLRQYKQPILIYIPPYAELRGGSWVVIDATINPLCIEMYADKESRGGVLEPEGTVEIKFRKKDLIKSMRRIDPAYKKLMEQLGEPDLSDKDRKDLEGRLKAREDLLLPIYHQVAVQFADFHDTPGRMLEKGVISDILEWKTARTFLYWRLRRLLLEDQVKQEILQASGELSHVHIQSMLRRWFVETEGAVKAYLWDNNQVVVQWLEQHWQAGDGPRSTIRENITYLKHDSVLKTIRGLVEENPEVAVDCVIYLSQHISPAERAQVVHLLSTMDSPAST

For orientation: IC50 means the point on the concentration scale where inhibition reaches its midpoint. High values mean lower potency, low ones higher potency. With `COc1ccccc1[C@H](Cn1c(=O)n(CC2CC(C(=O)O)C2)c(=O)c2c(C)c(-c3ncco3)sc21)OC1CCOCC1` (some centres not stated) [US12384798, Compound c-1], the IC50 against Acetyl-CoA carboxylase 1 was found to be 0.487 nM; against Acetyl-CoA carboxylase 2 it was 10 nM.
